According to the supplement of paper PMC11451515:

How the values were obtained:
Conditions in all cases: 48 h
[1] = test system: NOMO1; assay: cell viability relative to DMSO control; higher = less cytotoxic
Outline: (§1)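 Viability was expressed as a per-plate percentage of DMSO wells, with cell-free wells as background. Leukemia cells (NOMO1 or SEM at 500 cells/well, P12-Ichikawa at 1000 cells/well) were adapted for at least four passages in each medium and seeded in 1536-well plates (5 μl). Library compounds in DMSO were pin-dosed over an 11-point threefold series from 47 μM to 0.79 nM, and CellTiter-Glo One luminescence was read after 48 h at 37°C.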

[2] = test system: P12-Ichikawa; assay: as above
Outline: as §1

[3] = test system: SEM cells; assay: as above
Outline: as §1

[4] = test system: NOMO1; assay: AUC of viability dose-response curve (% viability x log10 dose units); higher = less sensitive
Outline: (§2)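 Leukemia cells adapted to each medium were seeded at 500 or 1000 cells/well in 1536-well plates and dosed with library compounds in DMSO at 11 threefold doses from 47 μM to 0.79 nM for 48 h at 37°C. CellTiter-Glo One luminescence was normalised per plate to DMSO and cell-free wells, then fitted with a four-parameter log-logistic model over log10 doses. Area under the curve was taken from this fit by the trapezoidal rule, with curves above full viability scaled and curves failing quality control removed.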

[5] = test system: P12-Ichikawa; assay: as above
Outline: as §2

[6] = test system: SEM cells; assay: as above
Outline: as §2

O=C(Nc1ccc(OC(F)(F)F)cc1)c1sccc1NCc1ccnc2ccccc12
cell viability [%]
Conditions	[1]	[2]	[3]
HPLM + 10% dialyzed FBS, 0.000781 µM	118	112	115
HPLM + 10% dialyzed FBS, 0.00234 µM	109	113	115
HPLM + 10% dialyzed FBS, 0.00702 µM	127	108	114
HPLM + 10% dialyzed FBS, 0.0211 µM	123	116	127
HPLM + 10% dialyzed FBS, 0.0632 µM	109	106	125
HPLM + 10% dialyzed FBS, 0.19 µM	110	112	115
HPLM + 10% dialyzed FBS, 0.569 µM	80.1	41.4	122
HPLM + 10% dialyzed FBS, 1.71 µM	43.1	12.8	82.3
HPLM + 10% dialyzed FBS, 5.12 µM	33.4	10.7	47.6
HPLM + 10% dialyzed FBS, 15.4 µM	33.8	8.54	24.8
HPLM + 10% dialyzed FBS, 46.1 µM	41.4	7.05	16.8
RPMI 5 mM glucose + 10% FBS, 0.000781 µM	118	106	–
RPMI 5 mM glucose + 10% FBS, 0.00234 µM	101	121	–
RPMI 5 mM glucose + 10% FBS, 0.00702 µM	117	118	–
RPMI 5 mM glucose + 10% FBS, 0.0211 µM	121	120	–
RPMI 5 mM glucose + 10% FBS, 0.0632 µM	112	118	–
RPMI 5 mM glucose + 10% FBS, 0.19 µM	105	113	–
RPMI 5 mM glucose + 10% FBS, 0.569 µM	108	102	–
RPMI 5 mM glucose + 10% FBS, 1.71 µM	96	72.6	–
RPMI 5 mM glucose + 10% FBS, 5.12 µM	52.8	25.9	–
RPMI 5 mM glucose + 10% FBS, 15.4 µM	22.6	10.3	–
RPMI 5 mM glucose + 10% FBS, 46.1 µM	25.3	9.62	–
RPMI 5 mM glucose + 10% dialyzed FBS, 0.000781 µM	105	109	122
RPMI 5 mM glucose + 10% dialyzed FBS, 0.00234 µM	106	119	117
RPMI 5 mM glucose + 10% dialyzed FBS, 0.00702 µM	113	111	127
RPMI 5 mM glucose + 10% dialyzed FBS, 0.0211 µM	117	120	135
RPMI 5 mM glucose + 10% dialyzed FBS, 0.0632 µM	107	108	125
RPMI 5 mM glucose + 10% dialyzed FBS, 0.19 µM	109	103	136
RPMI 5 mM glucose + 10% dialyzed FBS, 0.569 µM	116	110	130
RPMI 5 mM glucose + 10% dialyzed FBS, 1.71 µM	91.6	73.5	99.2
RPMI 5 mM glucose + 10% dialyzed FBS, 5.12 µM	57	33.1	87.8
RPMI 5 mM glucose + 10% dialyzed FBS, 15.4 µM	28	16.6	24.1
RPMI 5 mM glucose + 10% dialyzed FBS, 46.1 µM	36.1	16.1	15.8

AUC of viability dose-response curve
Conditions	[4]	[5]	[6]
HPLM + 10% dialyzed FBS	346	295	373
RPMI 5 mM glucose + 10% FBS	388	351	359
RPMI 5 mM glucose + 10% dialyzed FBS	395	363	395

CNC(=O)c1cccc(-c2ccc3c(N4CCOC[C@@H]4C)nc(N4CCOC[C@@H]4C)nc3n2)c1
cell viability [%]
Conditions	[1]	[2]	[3]
HPLM + 10% dialyzed FBS, 0.000781 µM	99.9	104	97.5
HPLM + 10% dialyzed FBS, 0.00234 µM	99.8	106	102
HPLM + 10% dialyzed FBS, 0.00702 µM	83.6	95	85.8
HPLM + 10% dialyzed FBS, 0.0211 µM	92.1	92.4	77.2
HPLM + 10% dialyzed FBS, 0.0632 µM	73.8	87.1	73.2
HPLM + 10% dialyzed FBS, 0.19 µM	61.4	80.2	63.7
HPLM + 10% dialyzed FBS, 0.569 µM	64.3	78.8	62.6
HPLM + 10% dialyzed FBS, 1.71 µM	67.3	67.7	47.8
HPLM + 10% dialyzed FBS, 5.12 µM	60.1	65.6	37.6
HPLM + 10% dialyzed FBS, 15.4 µM	49.3	64.8	38.6
HPLM + 10% dialyzed FBS, 46.1 µM	53.7	62.4	23.1
RPMI 5 mM glucose + 10% FBS, 0.000781 µM	98.3	93.7	110
RPMI 5 mM glucose + 10% FBS, 0.00234 µM	91.1	98.6	98.1
RPMI 5 mM glucose + 10% FBS, 0.00702 µM	91.2	86.7	97
RPMI 5 mM glucose + 10% FBS, 0.0211 µM	96.6	75.4	93.3
RPMI 5 mM glucose + 10% FBS, 0.0632 µM	79.6	67.2	84.4
RPMI 5 mM glucose + 10% FBS, 0.19 µM	82.9	57.2	77.6
RPMI 5 mM glucose + 10% FBS, 0.569 µM	87.2	55.7	78.7
RPMI 5 mM glucose + 10% FBS, 1.71 µM	68.9	54.3	56.1
RPMI 5 mM glucose + 10% FBS, 5.12 µM	57.9	54.9	47.3
RPMI 5 mM glucose + 10% FBS, 15.4 µM	60.2	48.5	32.9
RPMI 5 mM glucose + 10% FBS, 46.1 µM	45.2	44.5	17.9
RPMI 5 mM glucose + 10% dialyzed FBS, 0.000781 µM	83.7	98.4	97.7
RPMI 5 mM glucose + 10% dialyzed FBS, 0.00234 µM	85.7	102	95.9
RPMI 5 mM glucose + 10% dialyzed FBS, 0.00702 µM	90.5	89.5	85.3
RPMI 5 mM glucose + 10% dialyzed FBS, 0.0211 µM	79.5	80.6	76
RPMI 5 mM glucose + 10% dialyzed FBS, 0.0632 µM	75.6	72.8	69.6
RPMI 5 mM glucose + 10% dialyzed FBS, 0.19 µM	62.8	61.8	64.1
RPMI 5 mM glucose + 10% dialyzed FBS, 0.569 µM	62.5	64.6	58.6
RPMI 5 mM glucose + 10% dialyzed FBS, 1.71 µM	54.8	58.1	55.3
RPMI 5 mM glucose + 10% dialyzed FBS, 5.12 µM	50.4	49.8	43
RPMI 5 mM glucose + 10% dialyzed FBS, 15.4 µM	49.4	44.7	35
RPMI 5 mM glucose + 10% dialyzed FBS, 46.1 µM	50.3	39.9	20.7

AUC of viability dose-response curve
Conditions	[4]	[5]	[6]
HPLM + 10% dialyzed FBS	343	370	305
RPMI 5 mM glucose + 10% FBS	376	316	333
RPMI 5 mM glucose + 10% dialyzed FBS	323	322	305

C[C@@H]1CC[C@@]2(OC1)O[C@H]3C[C@H]4[C@@H]5C/C=C6/C[C@H](CC[C@]6(C)[C@H]5CC[C@]4(C)[C@H]3[C@@H]2C)O[C@@H]7O[C@H](CO)[C@@H](O[C@@H]8O[C@@H](C)[C@H](O)[C@@H](O)[C@H]8O)[C@H](O)[C@H]7O[C@@H]9O[C@@H](C)[C@H](O)[C@@H](O)[C@H]9O
cell viability [%]
Conditions	[1]	[2]	[3]
HPLM + 10% dialyzed FBS, 0.000781 µM	108	124	92.6
HPLM + 10% dialyzed FBS, 0.00234 µM	122	128	79.3
HPLM + 10% dialyzed FBS, 0.00702 µM	122	119	97.5
HPLM + 10% dialyzed FBS, 0.0211 µM	127	131	110
HPLM + 10% dialyzed FBS, 0.0632 µM	142	129	114
HPLM + 10% dialyzed FBS, 0.19 µM	136	130	117
HPLM + 10% dialyzed FBS, 0.569 µM	141	136	118
HPLM + 10% dialyzed FBS, 1.71 µM	152	134	115
HPLM + 10% dialyzed FBS, 5.12 µM	132	132	111
HPLM + 10% dialyzed FBS, 15.4 µM	124	116	73.9
HPLM + 10% dialyzed FBS, 46.1 µM	8.71	7.3	8.36
RPMI 5 mM glucose + 10% dialyzed FBS, 0.000781 µM	–	–	110
RPMI 5 mM glucose + 10% dialyzed FBS, 0.00234 µM	–	–	116
RPMI 5 mM glucose + 10% dialyzed FBS, 0.00702 µM	–	–	114
RPMI 5 mM glucose + 10% dialyzed FBS, 0.0211 µM	–	–	116
RPMI 5 mM glucose + 10% dialyzed FBS, 0.0632 µM	–	–	139
RPMI 5 mM glucose + 10% dialyzed FBS, 0.19 µM	–	–	104
RPMI 5 mM glucose + 10% dialyzed FBS, 0.569 µM	–	–	122
RPMI 5 mM glucose + 10% dialyzed FBS, 1.71 µM	–	–	119
RPMI 5 mM glucose + 10% dialyzed FBS, 5.12 µM	–	–	119
RPMI 5 mM glucose + 10% dialyzed FBS, 15.4 µM	–	–	55
RPMI 5 mM glucose + 10% dialyzed FBS, 46.1 µM	–	–	7.66

AUC of viability dose-response curve
Conditions	[4]	[5]	[6]
HPLM + 10% dialyzed FBS	452	450	440
RPMI 5 mM glucose + 10% FBS	453	452	431
RPMI 5 mM glucose + 10% dialyzed FBS	449	445	429
